Test: Mouse Growth Regulant Tests (12-day weight gain over controls, compound in diet)
Format: in vivo, CFI female mice
Conditions: Mus musculus, feed or water, 288 h, Table IX; 400 ppm in diet
Method: CFI female mice from Carworth Farms are received when they are six weeks old. They are housed ten to a cage in air-conditioned rooms (72° F. to 76° F.) with automatically controlled lights, 14 hours on and 10 hours off. The basal diet used in these studies is Purina Laboratory Chow (see description below), which is supplied ad libitum. Water is also allowed ad libitum.
Thirteen days after arrival, the mice are weighed in groups of ten and assigned at random to the different treatments. Twelve days later the mice are weighed again and the experiment terminated. At least three cages (30 mice) of untreated controls are included in each test. Test data are provided in Tables VI, VII, VIII, and IX below wherein data are reported as percent weight gain over controls. Unless otherwise indicated in these tables, all compounds tested were dl-racemic mixtures. The following is a description of the diet to which the growth promoting compounds were added.
`NC(=O)NC1CCCC(=O)c2sccc21` (stereo not drawn) [5,6,7,8-tetrahydro-4H-8-oxocyclohepta[b]thien-4-ylurea] gave a change in vivo at 400 ppm of 68.8%. For `COCNC(=O)NC1CCCCc2sccc21` (stereo not drawn) [Table IX: O,H,H,CH2OCH3, 1-(methoxymethyl)-3-(5,6,7,8-tetrahydro-4H-cyclohepta[b]thien-4-yl)urea], the change in vivo at 400 ppm was 10%. `CNC(=O)NC1CCCCc2sccc21` (stereo not drawn) [Table IX: O,H,H,CH3, 1-methyl-3-(5,6,7,8-tetrahydro-4H-cyclohepta[b]thien-4-yl)urea] gave a change in vivo at 400 ppm of 41%. For `NC(=O)NC1CCCCc2sccc21` (stereo not drawn) [Table IX: O,H,H,H, 5,6,7,8-tetrahydro-4H-cyclohepta[b]thien-4-ylurea], the change in vivo at 400 ppm was 54%. With `CCNC(=S)NC1CCCCc2sccc21` (stereo not drawn) [Table IX: S,H,H,C2H5, 1-ethyl-3-(5,6,7,8-tetrahydro-4H-cyclohepta[b]thien-4-yl)-2-thiourea] the change in vivo at 400 ppm was 40%.

Same assay, conditions: Mus musculus, feed or water, 288 h, Table VI; 200 ppm in diet
Molecule `O=C(NC(=O)C(Cl)(Cl)Cl)NC1CCCc2sccc21` (stereo not drawn) has a change in vivo at 200 ppm of 37.4%.

Same assay, conditions: Mus musculus, feed or water, 288 h, Table VI; 400 ppm in diet
Molecule `O=C(NC1CCCc2sccc21)NC1CCCc2sccc21` (stereo not drawn) has a change in vivo at 400 ppm of 43%. `S=C(NCCc1ccccn1)NC1CCCc2sccc21` (stereo not drawn) showed a change in vivo at 400 ppm of 15%. In the case of `S=C(NC1CC1)NC1CCCc2sccc21` (stereo not drawn), the change in vivo at 400 ppm is reported as 32%. In the case of `O=C(NC1CCCc2ccccc21)NC1CCCc2sccc21` (stereo not drawn), the change in vivo at 400 ppm is reported as 4%. Work on `O=C(NC1CCc2ccccc21)NC1CCCc2sccc21` (stereo not drawn) yielded a change in vivo at 400 ppm of 8%. With `O=C(NC1CCCc2sccc21)N1CCC2(CC1)C(=O)NCN2c1ccccc1` (stereo not drawn) the change in vivo at 400 ppm was 14%. `O=C(Nc1ccc(Cl)cc1Cl)NC1CCCc2sccc21` (stereo not drawn) showed a change in vivo at 400 ppm of 18%. In the case of `O=C(NCNC(=O)NC1CCCc2sccc21)NC1CCCc2sccc21` (stereo not drawn), the change in vivo at 400 ppm is reported as 29%. In the case of `COc1ccc(NC(=O)NC2CCCc3sccc32)cc1` (stereo not drawn), the change in vivo at 400 ppm is reported as 78%. `O=C(NCc1cccs1)NC1CCCc2sccc21` (stereo not drawn) showed a change in vivo at 400 ppm of 39%. `O=C(NCc1cccnc1)NC1CCCc2sccc21` (stereo not drawn) gave a change in vivo at 400 ppm of 48%. Molecule `C[n+]1cccc(CNC(=O)NC2CCCc3sccc32)c1` (stereo not drawn) has a change in vivo at 400 ppm of 6%. `O=C(Nc1ccc(Cl)cc1)NC1CCCc2sccc21` (stereo not drawn) showed a change in vivo at 400 ppm of 21%. For `COc1ccc(CNC(=O)NC2CCCc3sccc32)cc1` (stereo not drawn), the change in vivo at 400 ppm was 16%. `O=C(NCc1ccccn1)NC1CCCc2sccc21` (stereo not drawn) gave a change in vivo at 400 ppm of 41%. Work on `O=C(NCc1ccncc1)NC1CCCc2sccc21` (stereo not drawn) yielded a change in vivo at 400 ppm of 46%. `O=C(NC1CCCc2sccc21)N1CCNCC1` (stereo not drawn) gave a change in vivo at 400 ppm of 3%. For `O=C(NCc1ccc(Cl)cc1)NC1CCCc2sccc21` (stereo not drawn), the change in vivo at 400 ppm was 1%. `O=C(NC1CCCc2sccc21)N1CCCc2ccccc21` (stereo not drawn) showed a change in vivo at 400 ppm of 4%. With `O=C(NC1CC1)NC1CCCc2sccc21` (stereo not drawn) the change in vivo at 400 ppm was 31%. For `O=C(Nc1nccs1)NC1CCCc2sccc21` (stereo not drawn), the change in vivo at 400 ppm was 11%. `COc1ccc(N2CCN(C(=O)NC3CCCc4sccc43)CC2)cc1` (stereo not drawn) gave a change in vivo at 400 ppm of 24%. Molecule `O=C(NC1CCCc2sccc21)N1CCc2ccccc2C1` (stereo not drawn) has a change in vivo at 400 ppm of 7%. Molecule `O=C(Nc1ccc([N+](=O)[O-])cc1)NC1CCCc2sccc21` (stereo not drawn) has a change in vivo at 400 ppm of 9%. Work on `CCOc1ccc(NC(=O)NC2CCCc3sccc32)cc1` (stereo not drawn) yielded a change in vivo at 400 ppm of 8%. Molecule `CCCCOc1ccc(NC(=O)NC2CCCc3sccc32)cc1` (stereo not drawn) has a change in vivo at 400 ppm of 9%. Work on `O=C(NC1CCCc2sccc21)N(O)C1CCCCC1` (stereo not drawn) yielded a change in vivo at 400 ppm of 19%. With `CC(=O)NC(=O)NC1CCCc2sccc21` (stereo not drawn) the change in vivo at 400 ppm was -1.4%. Work on `COc1ccc(OC)c(NC(=O)NC2CCCc3sccc32)c1` (stereo not drawn) yielded a change in vivo at 400 ppm of 32.4%. In the case of `COc1cccc(NC(=O)NC2CCCc3sccc32)c1` (stereo not drawn), the change in vivo at 400 ppm is reported as 25%. In the case of `COc1ccc(NC(=S)NC2CCCc3sccc32)cc1` (stereo not drawn), the change in vivo at 400 ppm is reported as -1.4%. In the case of `O=C(NOc1ccccc1)NC1CCCc2sccc21` (stereo not drawn), the change in vivo at 400 ppm is reported as 90.6%. `NC(=O)NC1CCCc2sccc21` (single isomer, unassigned; (-)) [Table VI: O,H,H,H,H,H (levorotatory enantiomorph), (-)-4,5,6,7-tetrahydrobenzo[b]-thien-4-ylurea] gave a change in vivo at 400 ppm of 122%. In the case of `CNC(=O)NC1(C)CCCc2sccc21` (stereo not drawn) [1-methyl-3-(4-methyl-4,5,6,7-tetrahydrobenzo[b]thien-4-yl)urea], the change in vivo at 400 ppm is reported as 39%. With `CNC(=O)NC1CCC(C)(C)c2sccc21` (stereo not drawn) [1-methyl-3-(7,7-dimethyl-4,5,6,7-tetrahydrobenzo-[b]thien-4-yl)urea] the change in vivo at 400 ppm was 15%. With `NC(=O)NC1CCCc2sc(Br)cc21` (stereo not drawn) [Table VI: O,Br,H,H,H,H, 2-bromo-4,5,6,7-tetrahydrobenzo[b]-thien-4-ylurea] the change in vivo at 400 ppm was 76.3%. For `CCC(C)NC(=O)NC1CCCc2sc(C)c(C)c21` (stereo not drawn) [Table VI: O,CH3,CH3,H,2-butyl,H], the change in vivo at 400 ppm was 3%. Work on `Cc1sc2c(c1C)C(NC(N)=O)CCC2` (stereo not drawn) [Table VI: O,CH3,CH3,H,H,H] yielded a change in vivo at 400 ppm of 0%. With `CCC(C)NC(=O)NC1CCCc2sc(C)cc21` (stereo not drawn) [Table VI: O,CH3,H,H,2-butyl,H] the change in vivo at 400 ppm was 2%. Molecule `NC(=O)NC1CCCc2sc(Cl)cc21` (stereo not drawn) [Table VI: O,Cl,H,H,H,H, 2-chloro-4,5,6,7-tetrahydrobenzo[b]thien-4-ylurea] has a change in vivo at 400 ppm of 4.8%. For `Cc1csc2c1C(NC(N)=O)CCC2` (stereo not drawn) [Table VI: O,H,CH3,H,H,H, 3-methyl-4,5,6,7-tetrahydrobenzo[b]thien-4-ylurea], the change in vivo at 400 ppm was 26%. With `CCCCCCNC(=O)NC1CCCc2scc(C)c21` (stereo not drawn) [Table VI: O,H,CH3,H,H,n-hexyl] the change in vivo at 400 ppm was 21%. `CN(C(N)=O)C1CCCc2sccc21` (stereo not drawn) [Table VI: O,H,H,CH3,H, 1-methyl-1-(4,5,6,7-tetrahydrobenzo[b]-thien-4-yl)urea] showed a change in vivo at 400 ppm of 27.2%. Work on `C#CCN(Cc1ccccc1)C(=O)NC1CCCc2sccc21` (stereo not drawn) [Table VI: O,H,H,H,CH2C6H5,CH2CCH] yielded a change in vivo at 400 ppm of 30%. In the case of `O=C(NC1CCCc2sccc21)N(O)Cc1ccccc1` (stereo not drawn) [Table VI: O,H,H,H,CH2C6H5,OH], the change in vivo at 400 ppm is reported as 12%. For `C#CCN(CC#C)C(=O)NC1CCCc2sccc21` (stereo not drawn) [Table VI: O,H,H,H,CH2CCH,CH2CCH], the change in vivo at 400 ppm was 27%. `O=C(NC1CCCc2sccc21)N1CCCC1` (stereo not drawn) [Table VI: O,H,H,H,CH2CH2CH2CH2] showed a change in vivo at 400 ppm of 18%. `O=C(NC1CCCc2sccc21)N1CCOCC1` (stereo not drawn) [Table VI: O,H,H,H,CH2CH2OCH2CH2, N-(4,5,6,7-tetrahydrobenzo[b]thien-4-yl)-4-morpholinecarboxamide] gave a change in vivo at 400 ppm of 9.9%. In the case of `C=CCN(CC=C)C(=O)NC1CCCc2sccc21` (stereo not drawn) [Table VI: O,H,H,H,CH2CHCH2,CH2CHCH2], the change in vivo at 400 ppm is reported as 4%. Work on `CN(Cc1ccccc1)C(=O)NC1CCCc2sccc21` (stereo not drawn) [Table VI: O,H,H,H,CH3,CH2C6H5] yielded a change in vivo at 400 ppm of 14%. In the case of `C#CCN(C)C(=O)NC1CCCc2sccc21` (stereo not drawn) [Table VI: O,H,H,H,CH3,CH2CCH], the change in vivo at 400 ppm is reported as 29%. Molecule `CN(C)C(=O)NC1CCCc2sccc21` (stereo not drawn) [Table VI: O,H,H,H,CH3,CH3, 1,1-dimethyl-3-(4,5,6,7-tetrahydrobenzo[b]thien-4-yl)urea] has a change in vivo at 400 ppm of 55.1%. For `CON(C)C(=O)NC1CCCc2sccc21` (stereo not drawn) [Table VI: O,H,H,H,CH3,OCH3, 1-methoxy-1-methyl-3-(4,5,6,7-tetrahydrobenzo[b]thien-4-yl)urea], the change in vivo at 400 ppm was 107%. `CN(O)C(=O)NC1CCCc2sccc21` (stereo not drawn) [Table VI: O,H,H,H,CH3,OH, 1-hydroxy-1-methyl-3-(4,5,6,7-tetrahydrobenzo[b]thien-4-yl)urea] gave a change in vivo at 400 ppm of 49.6%.

Same assay, conditions: Mus musculus, feed or water, 288 h, Table VII; 25 ppm in diet
For `NC(=O)NC1CCC(=O)c2sccc21` (single isomer, unassigned; (-)) [Table VII: O,H,H (levorotatory enantiomorph), (-)-4,5,6,7-tetrahydro-7-oxobenzo[b]thien-4-ylurea], the change in vivo at 25 ppm was 119%.

Same assay, conditions: Mus musculus, feed or water, 288 h, Table VII; 200 ppm in diet
`NC(=O)NC1CCC(=O)c2sccc21` (single isomer, unassigned; (+)) [Table VII: O,H,H (dextrorotatory enantiomorph), (+)-4,5,6,7-tetrahydro-7-oxobenzo[b]thien-4-ylurea] gave a change in vivo at 200 ppm of 9.4%.

Same assay, conditions: Mus musculus, feed or water, 288 h, Table VII; 400 ppm in diet
`O=C(NC(=O)C(Cl)(Cl)Cl)NC1CCC(=O)c2sccc21` (stereo not drawn) showed a change in vivo at 400 ppm of 62.2%. `NC(=O)NC1CCC(=O)c2sc(Br)cc21` (stereo not drawn) [2-bromo-4,5,6,7-tetrahydro-7-oxobenzo[b]thien-4-ylurea] gave a change in vivo at 400 ppm of 35.9%.

Same assay, conditions: Mus musculus, feed or water, 288 h, Table VIII; 50 ppm in diet
Work on `NC(=O)NC1CCC(O)c2sccc21` (single isomer, unassigned; (+)) [Table VIII: O,H,H (dextrorotatory diastereomer, 95% isomer B), (+)-4,5,6,7-tetrahydro-7-hydroxybenzo[b]thien-4-ylurea] yielded a change in vivo at 50 ppm of -11.3%.

Same assay, conditions: Mus musculus, feed or water, 288 h, Table VIII; 200 ppm in diet
With `NC(=O)NC1CCC(O)c2sccc21` (mixture of isomers) [Table VIII: O,H,H (mixture of dextrorotatory diastereomers, 62% isomer B)] the change in vivo at 200 ppm was 13.5%.

Same assay, conditions: Table VIII; 25 ppm in diet
With `NC(=O)NC1CCC(O)c2sccc21` (single isomer, unassigned; (+)) [Table VIII: O,H,H (dextrorotatory diastereomer, 90% isomer A), (+)-4,5,6,7-tetrahydro-7-hydroxybenzo[b]thien-4-ylurea] the “& Weight Gain Over Controls” value was 3.7%. For `NC(=O)NC1CCC(O)c2sccc21` (single isomer, unassigned; (-)) [Table VIII: O,H,H (levorotatory diastereomer, 86% isomer A)], the “& Weight Gain Over Controls” value was 54.4%. In the case of `NC(=O)NC1CCC(O)c2sccc21` (single isomer, unassigned; (-)) [Table VIII: O,H,H (levorotatory diastereomer, 91.5% isomer B)], the “& Weight Gain Over Controls” value is reported as 74.5%.

Source: US4036979A, “Compositions containing 4,5,6,7-tetrahydrobenz[b]thien-4-yl-ureas or derivatives and methods of enhancing growth rate” (American Cyanamid Company, priority 1976, dated 1977)
